This note sets out measurements from ChEMBL document CHEMBL4800726, “Data for DCP probe MSC-4381” (2021).

Assay [1] addresses Alpha-1D adrenergic receptor (Homo sapiens) (UniProt P25100). The settings on record: Compound concentration 10.0 uM.
For assay [2], the target named is Histamine H1 receptor (Homo sapiens) (UniProt P35367). The settings on record: Compound concentration 10.0 uM.
Assay [3] has as its target Alpha-1A adrenergic receptor (Homo sapiens) (UniProt P35348). The settings on record: Compound concentration 10.0 uM.
Assay [4] deals with 5-hydroxytryptamine receptor 1E (Homo sapiens, UniProt P28566). The settings on record: Compound concentration 10.0 uM.
Assay [5] concerns the target Sodium-dependent noradrenaline transporter (Homo sapiens) (UniProt P23975). The settings on record: Compound concentration 10.0 uM.
Assay [6] addresses Histamine H3 receptor (Homo sapiens) (UniProt Q9Y5N1). The settings on record: Compound concentration 10.0 uM.
Assay [7] addresses Monocarboxylate transporter 1 (Homo sapiens, UniProt P53985). Description: Lactate efflux inhibition assay (SNU-398).
Assay [8] addresses Muscarinic acetylcholine receptor M4 (Homo sapiens) (UniProt P08173). The settings on record: Compound concentration 10.0 uM.
The target of assay [9] is D(1A) dopamine receptor (Homo sapiens) (UniProt P21728). The settings on record: Compound concentration 10.0 uM.
The target of assay [10] is 5-hydroxytryptamine receptor 2A (Homo sapiens) (UniProt P28223). The settings on record: Compound concentration 10.0 uM.
Sequence of 5-hydroxytryptamine receptor 2A (Homo sapiens) (P28223 whole entry): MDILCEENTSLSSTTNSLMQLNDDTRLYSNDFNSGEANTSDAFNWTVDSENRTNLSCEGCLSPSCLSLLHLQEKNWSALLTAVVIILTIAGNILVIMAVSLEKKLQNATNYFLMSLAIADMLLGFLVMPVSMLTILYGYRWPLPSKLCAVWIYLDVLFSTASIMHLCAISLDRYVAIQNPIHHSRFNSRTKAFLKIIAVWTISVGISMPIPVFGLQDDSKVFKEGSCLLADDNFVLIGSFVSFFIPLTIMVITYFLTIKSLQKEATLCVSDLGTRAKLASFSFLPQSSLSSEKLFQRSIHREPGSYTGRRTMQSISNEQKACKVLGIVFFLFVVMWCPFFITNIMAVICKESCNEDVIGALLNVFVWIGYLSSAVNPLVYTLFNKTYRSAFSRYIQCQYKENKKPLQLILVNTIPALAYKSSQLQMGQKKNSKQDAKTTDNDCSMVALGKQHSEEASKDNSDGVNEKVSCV
Assay [11] deals with Delta-type opioid receptor (Homo sapiens, UniProt P41143). Description: GPCRScan assay: inhibition of DOR. Also noted: radioligand conc. used [nm] 1.0 – 2.0, parental cells stable HEK.
Sequence of Delta-type opioid receptor (P41143 whole entry): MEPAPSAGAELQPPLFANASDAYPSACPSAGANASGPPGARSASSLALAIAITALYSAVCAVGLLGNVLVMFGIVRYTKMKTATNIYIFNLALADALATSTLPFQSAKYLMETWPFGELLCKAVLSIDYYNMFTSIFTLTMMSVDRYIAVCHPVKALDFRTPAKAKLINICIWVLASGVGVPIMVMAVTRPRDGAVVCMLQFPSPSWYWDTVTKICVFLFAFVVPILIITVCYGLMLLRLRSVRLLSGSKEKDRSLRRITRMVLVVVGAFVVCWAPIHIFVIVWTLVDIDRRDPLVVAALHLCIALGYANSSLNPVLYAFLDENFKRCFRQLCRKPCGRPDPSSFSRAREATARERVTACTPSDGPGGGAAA
Assay [12] has as its target GABA-A receptor; anion channel (Rattus norvegicus) (UniProt O09028+P15431+P18506+P18508+P19969+P20236+P23574+P23576+P28471+P28473+P30191+P62813+P63079+P63138+Q91ZM7+Q9ES14). The settings on record: Compound concentration 10.0 uM.
Assay [13] deals with D(2) dopamine receptor (Homo sapiens) (UniProt P14416). The settings on record: Compound concentration 10.0 uM.
Assay [14] has as its target Alpha-2A adrenergic receptor (Homo sapiens) (UniProt P08913). The settings on record: Compound concentration 10.0 uM.
Assay [15] has as its target T1, Muscarinic acetylcholine receptor M1 (Homo sapiens) (UniProt P11229).
T1 sequence (whole entry): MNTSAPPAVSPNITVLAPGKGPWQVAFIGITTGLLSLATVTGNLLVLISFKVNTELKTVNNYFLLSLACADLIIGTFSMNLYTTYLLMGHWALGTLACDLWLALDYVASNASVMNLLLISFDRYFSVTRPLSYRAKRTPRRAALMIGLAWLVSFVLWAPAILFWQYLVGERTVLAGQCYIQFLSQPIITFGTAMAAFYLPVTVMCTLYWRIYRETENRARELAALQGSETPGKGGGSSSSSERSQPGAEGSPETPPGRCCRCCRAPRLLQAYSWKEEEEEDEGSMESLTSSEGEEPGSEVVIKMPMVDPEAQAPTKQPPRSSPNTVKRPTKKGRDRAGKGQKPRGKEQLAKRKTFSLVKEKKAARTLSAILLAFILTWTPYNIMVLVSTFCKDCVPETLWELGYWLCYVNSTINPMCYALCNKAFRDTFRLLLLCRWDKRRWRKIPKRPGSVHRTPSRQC
The settings on record: Compound concentration 10.0 uM.

Assay [16] has as its target Mu-type opioid receptor (Homo sapiens) (UniProt P35372). The settings on record: Compound concentration 10.0 uM.
Assay [17] has as its target 5-hydroxytryptamine receptor 6 (Homo sapiens, UniProt P50406). The settings on record: Compound concentration 10.0 uM.
For assay [18], the target named is 5-hydroxytryptamine receptor 2C (Homo sapiens) (UniProt P28335). The settings on record: Compound concentration 10.0 uM.
Sequence of 5-hydroxytryptamine receptor 2C (Homo sapiens) (P28335 whole entry): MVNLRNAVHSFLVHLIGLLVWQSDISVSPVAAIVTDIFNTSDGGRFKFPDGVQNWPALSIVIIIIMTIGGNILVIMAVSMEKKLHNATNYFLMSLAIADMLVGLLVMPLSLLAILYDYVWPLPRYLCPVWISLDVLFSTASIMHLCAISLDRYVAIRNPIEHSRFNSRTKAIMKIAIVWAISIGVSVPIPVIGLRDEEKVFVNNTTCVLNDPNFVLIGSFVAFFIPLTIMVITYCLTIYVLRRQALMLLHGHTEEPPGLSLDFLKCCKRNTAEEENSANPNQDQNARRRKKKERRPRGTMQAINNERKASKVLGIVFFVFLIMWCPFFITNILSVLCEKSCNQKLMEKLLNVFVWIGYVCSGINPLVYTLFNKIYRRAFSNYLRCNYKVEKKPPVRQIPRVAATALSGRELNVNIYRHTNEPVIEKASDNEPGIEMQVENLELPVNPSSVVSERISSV
The target of assay [19] is 5-hydroxytryptamine receptor 7 (Homo sapiens) (UniProt P34969). The settings on record: Compound concentration 10.0 uM.
For assay [20], the target named is Sigma intracellular receptor 2 (Homo sapiens) (UniProt Q5BJF2). The settings on record: Compound concentration 10.0 uM.
The species entered for the next assay is Rattus norvegicus. In words: KV channel Eurofins-Cerep binding assay. The settings on record: filed as antagonist, Compound concentration 10.0 uM.
For assay [21], the target named is Adrenergic receptor alpha-1 (Rattus norvegicus) (UniProt P15823+P23944+P43140). Description: Alpha1 (non-selective) Eurofins-Cerep binding assay. Also noted: ligand concentration 0.25 nM. It counts as protein assay. The settings on record: filed as antagonist, Compound concentration 10.0 uM.
For assay [22], the target named is 5-hydroxytryptamine receptor 1B (Homo sapiens) (UniProt P28222). In words: 5-HT1B(h) Eurofins-Cerep binding assay. Also noted: ligand concentration 1 nM. The settings on record: filed as antagonist, Compound concentration 10.0 uM.
The target in assay [23] is T2, 5-hydroxytryptamine receptor 1A (Homo sapiens) (UniProt P08908).
T2 sequence (whole entry): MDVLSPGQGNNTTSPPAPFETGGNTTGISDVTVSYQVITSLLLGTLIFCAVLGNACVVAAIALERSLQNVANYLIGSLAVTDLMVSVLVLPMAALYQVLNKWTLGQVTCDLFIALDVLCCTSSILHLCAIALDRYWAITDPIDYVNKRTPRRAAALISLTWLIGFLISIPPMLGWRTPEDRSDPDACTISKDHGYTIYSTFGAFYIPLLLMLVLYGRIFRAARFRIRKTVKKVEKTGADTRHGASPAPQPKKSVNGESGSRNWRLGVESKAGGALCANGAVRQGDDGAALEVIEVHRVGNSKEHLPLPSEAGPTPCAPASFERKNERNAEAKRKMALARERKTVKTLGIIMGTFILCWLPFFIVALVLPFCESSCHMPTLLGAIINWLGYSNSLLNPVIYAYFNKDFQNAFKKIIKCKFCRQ
In words: 5-HT1A (h) Eurofins-Cerep binding assay. Also noted: ligand concentration 0.5 nM. The settings on record: filed as agonist, Compound concentration 10.0 uM.

Assay [24] addresses Vasopressin V1a receptor (Homo sapiens) (UniProt P37288). Description: V1a (h) Eurofins-Cerep Cellular and Nuclear Receptor Functional Assays. The settings on record: Compound concentration 10.0 uM.
In assay [25] the target is Neurotensin receptor type 1 (Homo sapiens) (UniProt P30989). In words: NTS1 (NT1) (h) Eurofins-Cerep binding assay. The settings on record: filed as agonist, Compound concentration 10.0 uM. Also noted: ligand concentration 0.05 nM.
Assay [26] addresses Cholecystokinin receptor type A (Homo sapiens) (UniProt P32238). Description: CCK1 (CCKA) (h) Eurofins-Cerep binding assay. Also noted: ligand concentration 0.08 nM. The settings on record: filed as agonist, Compound concentration 10.0 uM.
Assay [27] addresses Adrenergic receptor alpha-2 (Rattus norvegicus) (UniProt P22086+P19328+P22909). In words: Alpha2 (non-selective) Eurofins-Cerep binding assay. In kind it is protein assay. Also noted: ligand concentration 1 nM. The settings on record: filed as antagonist, Compound concentration 10.0 uM.
The target in assay [28] is Kappa-type opioid receptor (Homo sapiens) (UniProt P41145). In words: kappa (h) (KOP) Eurofins-Cerep binding assay. Also noted: ligand concentration 0.5 nM. The settings on record: filed as agonist, Compound concentration 10.0 uM.
The target of assay [29] is Galanin receptor type 2 (Homo sapiens) (UniProt O43603). In words: GAL2 (h) Eurofins-Cerep binding assay. Also noted: ligand concentration 0.05 nM. The settings on record: filed as agonist, Compound concentration 10.0 uM.
Assay [30] addresses Muscarinic acetylcholine receptor M3 (Homo sapiens) (UniProt P20309). The settings on record: Compound concentration 10.0 uM.
For assay [31], the target named is Melatonin receptor type 1A (Homo sapiens) (UniProt P48039). In words: MT1 (ML1A) (h) Eurofins-Cerep binding assay. The settings on record: filed as agonist, Compound concentration 10.0 uM. Also noted: ligand concentration 0.01 nM.

Sequence of Histamine H1 receptor (Homo sapiens) (P35367 whole entry): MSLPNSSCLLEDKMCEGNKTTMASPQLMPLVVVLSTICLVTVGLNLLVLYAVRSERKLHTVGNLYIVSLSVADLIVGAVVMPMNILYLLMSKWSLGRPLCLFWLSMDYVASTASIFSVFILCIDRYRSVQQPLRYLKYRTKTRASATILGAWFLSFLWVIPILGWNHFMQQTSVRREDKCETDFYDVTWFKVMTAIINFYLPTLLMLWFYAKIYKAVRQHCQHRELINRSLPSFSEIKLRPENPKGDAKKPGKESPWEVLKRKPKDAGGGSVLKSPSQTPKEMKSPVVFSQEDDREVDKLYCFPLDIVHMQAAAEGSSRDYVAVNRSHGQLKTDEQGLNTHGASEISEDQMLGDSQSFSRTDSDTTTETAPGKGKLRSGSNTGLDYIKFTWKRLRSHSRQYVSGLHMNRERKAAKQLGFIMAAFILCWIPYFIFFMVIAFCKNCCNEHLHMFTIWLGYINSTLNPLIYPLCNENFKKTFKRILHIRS
Sequence of Alpha-1D adrenergic receptor (Homo sapiens) (P25100 whole entry): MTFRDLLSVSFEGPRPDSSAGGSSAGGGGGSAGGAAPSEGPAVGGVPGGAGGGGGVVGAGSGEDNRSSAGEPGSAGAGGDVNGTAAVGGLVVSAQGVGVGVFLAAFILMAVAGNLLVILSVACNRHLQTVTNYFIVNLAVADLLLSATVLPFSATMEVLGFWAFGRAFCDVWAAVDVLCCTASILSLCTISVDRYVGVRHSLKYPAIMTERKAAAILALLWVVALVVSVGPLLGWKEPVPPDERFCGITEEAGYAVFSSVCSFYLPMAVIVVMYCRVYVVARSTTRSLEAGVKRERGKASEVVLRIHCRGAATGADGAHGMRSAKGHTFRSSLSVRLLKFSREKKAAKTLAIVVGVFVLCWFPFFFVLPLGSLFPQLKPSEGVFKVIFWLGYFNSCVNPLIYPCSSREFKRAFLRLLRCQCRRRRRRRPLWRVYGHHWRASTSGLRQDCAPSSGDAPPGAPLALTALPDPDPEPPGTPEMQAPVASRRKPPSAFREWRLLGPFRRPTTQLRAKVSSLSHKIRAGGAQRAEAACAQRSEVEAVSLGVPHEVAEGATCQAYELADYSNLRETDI
Sequence of Muscarinic acetylcholine receptor M4 (Homo sapiens) (P08173 whole entry): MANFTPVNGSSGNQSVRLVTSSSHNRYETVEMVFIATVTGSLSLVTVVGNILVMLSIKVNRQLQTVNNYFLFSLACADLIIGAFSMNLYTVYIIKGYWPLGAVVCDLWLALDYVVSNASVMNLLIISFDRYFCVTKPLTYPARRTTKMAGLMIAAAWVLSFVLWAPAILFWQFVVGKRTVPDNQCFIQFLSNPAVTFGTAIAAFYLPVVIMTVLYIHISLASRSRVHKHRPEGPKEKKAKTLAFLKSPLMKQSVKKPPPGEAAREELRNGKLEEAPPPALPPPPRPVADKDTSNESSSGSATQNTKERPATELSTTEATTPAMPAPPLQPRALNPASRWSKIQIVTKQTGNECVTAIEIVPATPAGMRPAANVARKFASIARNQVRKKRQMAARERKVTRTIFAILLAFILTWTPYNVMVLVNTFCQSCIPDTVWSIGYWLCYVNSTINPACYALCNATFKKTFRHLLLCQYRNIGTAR
Sequence of Alpha-1A adrenergic receptor (Homo sapiens) (P35348 whole entry): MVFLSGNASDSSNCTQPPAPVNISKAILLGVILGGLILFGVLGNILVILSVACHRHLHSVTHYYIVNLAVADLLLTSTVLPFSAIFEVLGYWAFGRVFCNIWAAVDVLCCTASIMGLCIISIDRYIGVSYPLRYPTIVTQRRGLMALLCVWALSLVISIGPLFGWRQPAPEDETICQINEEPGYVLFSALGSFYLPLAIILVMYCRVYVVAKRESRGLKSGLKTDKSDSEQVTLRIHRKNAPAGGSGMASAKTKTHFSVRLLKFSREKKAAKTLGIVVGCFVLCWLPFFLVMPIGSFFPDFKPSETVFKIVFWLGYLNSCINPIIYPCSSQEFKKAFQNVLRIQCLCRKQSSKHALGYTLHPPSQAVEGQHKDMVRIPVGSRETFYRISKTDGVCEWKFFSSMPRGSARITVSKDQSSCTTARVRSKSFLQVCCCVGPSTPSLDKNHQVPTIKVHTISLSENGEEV
Sequence of Alpha-2A adrenergic receptor (Homo sapiens) (P08913 whole entry): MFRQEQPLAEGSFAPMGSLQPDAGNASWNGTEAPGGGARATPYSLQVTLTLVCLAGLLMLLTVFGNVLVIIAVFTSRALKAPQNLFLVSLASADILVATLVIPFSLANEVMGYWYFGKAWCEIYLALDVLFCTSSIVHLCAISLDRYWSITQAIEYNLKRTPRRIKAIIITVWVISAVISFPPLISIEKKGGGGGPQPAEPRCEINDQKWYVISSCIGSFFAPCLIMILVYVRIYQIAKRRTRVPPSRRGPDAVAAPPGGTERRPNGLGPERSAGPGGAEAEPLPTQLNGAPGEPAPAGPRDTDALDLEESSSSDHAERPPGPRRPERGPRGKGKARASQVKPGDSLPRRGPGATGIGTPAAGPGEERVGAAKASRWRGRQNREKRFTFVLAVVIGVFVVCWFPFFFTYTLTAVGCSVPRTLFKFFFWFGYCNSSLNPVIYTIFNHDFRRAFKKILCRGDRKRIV
Sequence of Vasopressin V1a receptor (Homo sapiens) (P37288 whole entry, looked up): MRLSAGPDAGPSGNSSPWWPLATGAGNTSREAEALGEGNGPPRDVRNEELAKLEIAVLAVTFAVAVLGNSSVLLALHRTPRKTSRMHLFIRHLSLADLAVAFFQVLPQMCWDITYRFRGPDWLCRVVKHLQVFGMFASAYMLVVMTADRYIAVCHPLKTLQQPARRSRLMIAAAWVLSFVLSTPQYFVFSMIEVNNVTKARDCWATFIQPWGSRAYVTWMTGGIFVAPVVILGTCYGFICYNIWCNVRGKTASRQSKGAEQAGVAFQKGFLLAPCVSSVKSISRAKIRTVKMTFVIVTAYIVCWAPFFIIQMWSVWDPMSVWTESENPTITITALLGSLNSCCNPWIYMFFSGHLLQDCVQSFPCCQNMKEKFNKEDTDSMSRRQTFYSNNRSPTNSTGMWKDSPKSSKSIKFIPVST
Sequence of Sodium-dependent noradrenaline transporter (Homo sapiens) (P23975 whole entry): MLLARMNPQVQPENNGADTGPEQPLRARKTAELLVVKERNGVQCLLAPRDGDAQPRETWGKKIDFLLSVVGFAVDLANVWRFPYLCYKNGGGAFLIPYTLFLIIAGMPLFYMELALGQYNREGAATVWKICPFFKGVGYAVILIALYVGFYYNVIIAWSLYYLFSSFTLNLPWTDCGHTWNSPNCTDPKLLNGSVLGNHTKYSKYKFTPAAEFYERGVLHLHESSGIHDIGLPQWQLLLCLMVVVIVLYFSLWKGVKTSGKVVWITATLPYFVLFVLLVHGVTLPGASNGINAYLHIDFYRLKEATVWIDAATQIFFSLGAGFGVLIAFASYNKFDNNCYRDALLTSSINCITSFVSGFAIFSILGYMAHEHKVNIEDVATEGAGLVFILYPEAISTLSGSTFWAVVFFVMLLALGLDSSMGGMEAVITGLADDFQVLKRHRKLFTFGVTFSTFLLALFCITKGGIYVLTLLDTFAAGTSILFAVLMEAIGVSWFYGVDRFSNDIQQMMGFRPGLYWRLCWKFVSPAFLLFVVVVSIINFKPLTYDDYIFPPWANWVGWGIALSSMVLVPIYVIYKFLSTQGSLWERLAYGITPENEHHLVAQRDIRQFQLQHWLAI

For the molecule `COc1cc(C(=O)O)ncc1C#Cc1ccccc1NS(=O)(=O)c1cccc2c(N(C)C)ccnc12` [MSC-0516], the inhibition is 1.48% in assay [1]; -1.47% in assay [2]; 13.7% in [3]; 20.6% in assay [4]; -7.14% in assay [5]; 6.76% in assay [6]. The inhibition is -5.83% in assay [8]; 17.8% in assay [9]; 9.61% in assay [10]; 25.6% in assay [12]; -0.32% in assay [13]; 44.4% in assay [14]. Also, the inhibition in [15] was 25%; in assay [16] it was 35.4%; in assay [17], 65.5%; in [18], 7.95%; in assay [19], -2.53%; in [20], 25%. The IC50 in assay [7] is > 4000 nM (not active). In addition, the Ki was 598 nM in [11] (read-out: Ki) and 589 nM in assay [11] (read-out: pKi (converted)).

Take `CCOc1ccc(S(=O)(=O)Nc2ccc(Cl)cc2C#Cc2cnc(C(=O)O)cc2OC)c2ncccc12` [MSC-4381]: the % Inhibition of Control Specific Binding (Mean n=2) is -5.9% in the assay filed under Rattus norvegicus; 6.6% in assay [21]; -15.6% in [22]; -58.9% in assay [23]; -10.4% in assay [25]; -18.1% in assay [26]. Also, the % Inhibition of Control Specific Binding (Mean n=2) in [27] was -8.2%; in assay [28], -12.1%; in assay [29], 11.1%; in assay [31] it was 15.3%. Further, the inhibition was 20.8% in assay [1]; 21.7% in assay [2]; 13.3% in assay [3]; 34.4% in assay [5]; 4.24% in assay [8]; 8.58% in assay [9]. In addition, the inhibition in assay [10] was -0.22%; in assay [12] it was 0.15%; in assay [13], 9.9%; in assay [14], 26%; in assay [15], 16.3%; in assay [17], 25.9%. The inhibition in assay [18] was 24.4%; in assay [30] it was 9.34%; in assay [19] it was 2.02%. The molecule also showed a % Inhibition of Control Agonist Response (Mean n=2) in [24] of 34.9%. In addition, in assay [24], the % of Control Agonist Response (Mean n=2) was -3.1%.
